Data: ChEMBL document CHEMBL4393731, “Discovery of fused bicyclic derivatives of 1H-pyrrolo[1,2-c]imidazol-1-one as VDR signaling regulators” (Bioorg Med Chem, 2019)
Active and inactive are the calls of the source. The calls are words filed in the database; no cut-off is given here.

The compounds below were run against T1, Vitamin D3 receptor (Homo sapiens) (UniProt P11473) (assay: Modulation of VDR in human HeLa cells assessed as increase in calcitriol-induced LC3-2 to LC3-1 ratio at 10 uM measured after 4 hrs by Western blot analysis).
T1 sequence (whole entry): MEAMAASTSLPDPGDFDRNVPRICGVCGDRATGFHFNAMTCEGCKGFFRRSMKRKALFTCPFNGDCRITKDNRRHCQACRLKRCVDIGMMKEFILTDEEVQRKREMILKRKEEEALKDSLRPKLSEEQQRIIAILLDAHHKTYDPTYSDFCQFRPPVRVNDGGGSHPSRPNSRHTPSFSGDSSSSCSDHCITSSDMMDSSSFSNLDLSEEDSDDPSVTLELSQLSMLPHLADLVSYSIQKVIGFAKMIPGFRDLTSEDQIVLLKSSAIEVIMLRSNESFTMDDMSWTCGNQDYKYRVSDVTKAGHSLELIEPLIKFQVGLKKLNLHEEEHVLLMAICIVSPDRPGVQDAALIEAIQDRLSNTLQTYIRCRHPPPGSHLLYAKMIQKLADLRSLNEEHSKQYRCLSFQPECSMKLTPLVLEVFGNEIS
Type: cell-based

Structure (SMILES)	Activity
CSCC[C@H](NC(=O)OC(C)(C)C)C(=O)Nc1ccc([C@H]2N(c3ccc([N+](=O)[O-])cc3)C(=O)[C@@H]3CCCN32)cc1	Active
COc1ccc(C[C@H]2N(c3ccc([N+](=O)[O-])cc3)C(=O)[C@@H]3CCCN32)cc1OC	Active

Each compound was assayed on HeLa (assay: Induction of autophagy in human HeLa cells transformed with VDR shRNA assessed as effect on p62 expression at 10 uM measured after 4 hrs in presence of calcitriol by Western blot analysis).
Type: functional, cell-based

Structure (SMILES)	Activity
O=C1[C@@H]2CCCN2[C@@H](c2ccco2)N1c1ccc([N+](=O)[O-])cc1	inactive
COc1cc([C@H]2N(c3ccc([N+](=O)[O-])cc3)C(=O)[C@@H]3CCCN32)ccc1O	inactive
CSCC[C@H](NC(=O)OC(C)(C)C)C(=O)Nc1ccc([C@H]2N(c3ccc([N+](=O)[O-])cc3)C(=O)[C@@H]3CCCN32)cc1	inactive
COc1ccc(C[C@H]2N(c3ccc([N+](=O)[O-])cc3)C(=O)[C@@H]3CCCN32)cc1OC	inactive

What follows are compounds tested on HeLa (assay: Up regulation of VDR expression in human HeLa cells at 10 uM measured after 4 hrs in presence of VDR shRNA by Western blot analysis).
Type: functional, cell-based

Structure (SMILES)	Activity
O=C1[C@@H]2CCCN2[C@@H](c2ccco2)N1c1ccc([N+](=O)[O-])cc1	inactive
COc1cc([C@H]2N(c3ccc([N+](=O)[O-])cc3)C(=O)[C@@H]3CCCN32)ccc1O	inactive
CSCC[C@H](NC(=O)OC(C)(C)C)C(=O)Nc1ccc([C@H]2N(c3ccc([N+](=O)[O-])cc3)C(=O)[C@@H]3CCCN32)cc1	Active
COc1ccc(C[C@H]2N(c3ccc([N+](=O)[O-])cc3)C(=O)[C@@H]3CCCN32)cc1OC	Active

What follows are compounds tested against T1, Vitamin D3 receptor (Homo sapiens) (assay: Modulation of VDR in human HeLa cells assessed as increase in calcitriol-induced upregulation of p62 expression at 10 uM measured after 4 hrs by Western blot analysis).
Type: cell-based

Structure (SMILES)	Activity
O=C1[C@@H]2CCCN2[C@@H](c2ccco2)N1c1ccc([N+](=O)[O-])cc1	Active
COc1cc([C@H]2N(c3ccc([N+](=O)[O-])cc3)C(=O)[C@@H]3CCCN32)ccc1O	Active
CSCC[C@H](NC(=O)OC(C)(C)C)C(=O)Nc1ccc([C@H]2N(c3ccc([N+](=O)[O-])cc3)C(=O)[C@@H]3CCCN32)cc1	Active
COc1ccc(C[C@H]2N(c3ccc([N+](=O)[O-])cc3)C(=O)[C@@H]3CCCN32)cc1OC	Active

These compounds were tested on HeLa (assay: Cytotoxicity against human HeLa cells measured after 24 hrs by MTT assay).
Type: cell-based

Structure (SMILES)	CC10 [µM]
O=C1[C@@H]2CCCN2[C@@H](c2ccco2)N1c1ccc([N+](=O)[O-])cc1	> 10
COc1cc([C@H]2N(c3ccc([N+](=O)[O-])cc3)C(=O)[C@@H]3CCCN32)ccc1O	> 10
CSCC[C@H](NC(=O)OC(C)(C)C)C(=O)Nc1ccc([C@H]2N(c3ccc([N+](=O)[O-])cc3)C(=O)[C@@H]3CCCN32)cc1	> 10
COc1ccc(C[C@H]2N(c3ccc([N+](=O)[O-])cc3)C(=O)[C@@H]3CCCN32)cc1OC	> 10

The compounds below were run against T1, Vitamin D3 receptor (Homo sapiens) (assay: Activation of VDR (unknown origin) expressed in human HeLa cells measured after 24 hrs by luciferase reporter assay).
Type: cell-based

Structure (SMILES)	Activity
O=C1[C@@H]2CCCN2[C@@H](c2ccco2)N1c1ccc([N+](=O)[O-])cc1	inactive
COc1cc([C@H]2N(c3ccc([N+](=O)[O-])cc3)C(=O)[C@@H]3CCCN32)ccc1O	inactive
CSCC[C@H](NC(=O)OC(C)(C)C)C(=O)Nc1ccc([C@H]2N(c3ccc([N+](=O)[O-])cc3)C(=O)[C@@H]3CCCN32)cc1	inactive
COc1ccc(C[C@H]2N(c3ccc([N+](=O)[O-])cc3)C(=O)[C@@H]3CCCN32)cc1OC	inactive

Each compound was assayed against Genome polyprotein (dengue virus type 2) (UniProt P29990) (assay: Inhibition of Dengue virus 2 NS2B-NS3 protease).

Structure (SMILES)	Inhibition (active/not active)
O=C1[C@@H]2CCCN2[C@@H](c2ccco2)N1c1ccc([N+](=O)[O-])cc1	inactive
COc1cc([C@H]2N(c3ccc([N+](=O)[O-])cc3)C(=O)[C@@H]3CCCN32)ccc1O	inactive
CSCC[C@H](NC(=O)OC(C)(C)C)C(=O)Nc1ccc([C@H]2N(c3ccc([N+](=O)[O-])cc3)C(=O)[C@@H]3CCCN32)cc1	inactive
COc1ccc(C[C@H]2N(c3ccc([N+](=O)[O-])cc3)C(=O)[C@@H]3CCCN32)cc1OC	inactive

What follows are compounds tested on HeLa (assay: Induction of autophagy in human HeLa cells transformed with VDR shRNA assessed as effect on p62 expression at 10 uM measured after 4 hrs by Western blot analysis).
Type: functional, cell-based

Structure (SMILES)	Activity
O=C1[C@@H]2CCCN2[C@@H](c2ccco2)N1c1ccc([N+](=O)[O-])cc1	inactive
COc1cc([C@H]2N(c3ccc([N+](=O)[O-])cc3)C(=O)[C@@H]3CCCN32)ccc1O	inactive
CSCC[C@H](NC(=O)OC(C)(C)C)C(=O)Nc1ccc([C@H]2N(c3ccc([N+](=O)[O-])cc3)C(=O)[C@@H]3CCCN32)cc1	inactive
COc1ccc(C[C@H]2N(c3ccc([N+](=O)[O-])cc3)C(=O)[C@@H]3CCCN32)cc1OC	inactive

These compounds were tested against T1, Vitamin D3 receptor (Homo sapiens) (assay: Modulation of VDR (unknown origin) expressed in human HeLa cells assessed as increase in calcitriol-induced response measured after 24 hrs by luciferase reporter assay).
Type: cell-based

Structure (SMILES)	Activity
O=C1[C@@H]2CCCN2[C@@H](c2ccco2)N1c1ccc([N+](=O)[O-])cc1	Dose-dependent effect
COc1cc([C@H]2N(c3ccc([N+](=O)[O-])cc3)C(=O)[C@@H]3CCCN32)ccc1O	Dose-dependent effect
CSCC[C@H](NC(=O)OC(C)(C)C)C(=O)Nc1ccc([C@H]2N(c3ccc([N+](=O)[O-])cc3)C(=O)[C@@H]3CCCN32)cc1	Dose-dependent effect
COc1ccc(C[C@H]2N(c3ccc([N+](=O)[O-])cc3)C(=O)[C@@H]3CCCN32)cc1OC	Dose-dependent effect

Each compound was assayed on HeLa (assay: Induction of autophagy in human HeLa cells transformed with VDR shRNA assessed as up regulation of LC3-1 expression at 10 uM measured after 4 hrs in presence of calcitriol by Western blot analysis).
Type: functional, cell-based

Structure (SMILES)	Activity
O=C1[C@@H]2CCCN2[C@@H](c2ccco2)N1c1ccc([N+](=O)[O-])cc1	Active
COc1cc([C@H]2N(c3ccc([N+](=O)[O-])cc3)C(=O)[C@@H]3CCCN32)ccc1O	Active
CSCC[C@H](NC(=O)OC(C)(C)C)C(=O)Nc1ccc([C@H]2N(c3ccc([N+](=O)[O-])cc3)C(=O)[C@@H]3CCCN32)cc1	Active
COc1ccc(C[C@H]2N(c3ccc([N+](=O)[O-])cc3)C(=O)[C@@H]3CCCN32)cc1OC	Active

Each compound was assayed against T1, Vitamin D3 receptor (Homo sapiens) (assay: Modulation of VDR in human HeLa cells assessed as down regulation of p65 expression at 10 uM measured after 24 hrs in the presence of calcitriol by Western blot analysis).
Type: cell-based

Structure (SMILES)	Activity
O=C1[C@@H]2CCCN2[C@@H](c2ccco2)N1c1ccc([N+](=O)[O-])cc1	Active
COc1cc([C@H]2N(c3ccc([N+](=O)[O-])cc3)C(=O)[C@@H]3CCCN32)ccc1O	Active
CSCC[C@H](NC(=O)OC(C)(C)C)C(=O)Nc1ccc([C@H]2N(c3ccc([N+](=O)[O-])cc3)C(=O)[C@@H]3CCCN32)cc1	Active
COc1ccc(C[C@H]2N(c3ccc([N+](=O)[O-])cc3)C(=O)[C@@H]3CCCN32)cc1OC	Active

These compounds were tested on HeLa (assay: Induction of autophagy in human HeLa cells transformed with shRNA against VDR assessed as downregulation of LC3-2 expression at 10 uM measured after 4 hrs).
Type: functional, cell-based

Structure (SMILES)	Activity
COc1ccc(C[C@H]2N(c3ccc([N+](=O)[O-])cc3)C(=O)[C@@H]3CCCN32)cc1OC	Active

These compounds were tested against T1, Vitamin D3 receptor (Homo sapiens) (assay: Activation of VDR in human HeLa cells assessed as up regulation of phosphorylated p65 expression at 10 uM measured after 24 hrs in the presence of calcitriol by Western blot analysis).
Type: cell-based

Structure (SMILES)	Activity
O=C1[C@@H]2CCCN2[C@@H](c2ccco2)N1c1ccc([N+](=O)[O-])cc1	Active
COc1cc([C@H]2N(c3ccc([N+](=O)[O-])cc3)C(=O)[C@@H]3CCCN32)ccc1O	Active
CSCC[C@H](NC(=O)OC(C)(C)C)C(=O)Nc1ccc([C@H]2N(c3ccc([N+](=O)[O-])cc3)C(=O)[C@@H]3CCCN32)cc1	Active
COc1ccc(C[C@H]2N(c3ccc([N+](=O)[O-])cc3)C(=O)[C@@H]3CCCN32)cc1OC	Active

The compounds below were run against T1, Vitamin D3 receptor (Homo sapiens) (assay: Modulation of VDR in human HeLa cells assessed as increase in calcitriol-induced upregulation of LC3-2 expression at 10 uM measured after 4 hrs by Western blot analysis).
Type: cell-based

Structure (SMILES)	Activity
O=C1[C@@H]2CCCN2[C@@H](c2ccco2)N1c1ccc([N+](=O)[O-])cc1	Active
COc1cc([C@H]2N(c3ccc([N+](=O)[O-])cc3)C(=O)[C@@H]3CCCN32)ccc1O	Active
CSCC[C@H](NC(=O)OC(C)(C)C)C(=O)Nc1ccc([C@H]2N(c3ccc([N+](=O)[O-])cc3)C(=O)[C@@H]3CCCN32)cc1	Active
COc1ccc(C[C@H]2N(c3ccc([N+](=O)[O-])cc3)C(=O)[C@@H]3CCCN32)cc1OC	Active

The compounds below were run against T1, Vitamin D3 receptor (Homo sapiens) (assay: Modulation of VDR (unknown origin) expressed in human HeLa cells assessed as increase in calcitriol-induced response at 10 uM measured after 24 hrs by luciferase reporter assay relative to control).
Type: cell-based

Structure (SMILES)	fold change (FC)
COc1ccc(C[C@H]2N(c3ccc([N+](=O)[O-])cc3)C(=O)[C@@H]3CCCN32)cc1OC	2.5 to 3

The compounds below were run on HeLa (assay: Induction of autophagy in human HeLa cells transformed with VDR shRNA assessed as up regulation of LC3-2 expression at 10 uM measured after 4 hrs in presence of calcitriol by western blot analysis).
Type: functional, cell-based

Structure (SMILES)	Activity
O=C1[C@@H]2CCCN2[C@@H](c2ccco2)N1c1ccc([N+](=O)[O-])cc1	Active
COc1cc([C@H]2N(c3ccc([N+](=O)[O-])cc3)C(=O)[C@@H]3CCCN32)ccc1O	Active
CSCC[C@H](NC(=O)OC(C)(C)C)C(=O)Nc1ccc([C@H]2N(c3ccc([N+](=O)[O-])cc3)C(=O)[C@@H]3CCCN32)cc1	Active

Each compound was assayed on HeLa (assay: Induction of autophagy in human HeLa cells assessed as calcitriol-induced up regulation of LC3-1 expression at 10 uM measured after 4 hrs by Western blot analysis).
Type: functional, cell-based

Structure (SMILES)	Activity
O=C1[C@@H]2CCCN2[C@@H](c2ccco2)N1c1ccc([N+](=O)[O-])cc1	Active
COc1cc([C@H]2N(c3ccc([N+](=O)[O-])cc3)C(=O)[C@@H]3CCCN32)ccc1O	Active
CSCC[C@H](NC(=O)OC(C)(C)C)C(=O)Nc1ccc([C@H]2N(c3ccc([N+](=O)[O-])cc3)C(=O)[C@@H]3CCCN32)cc1	Active
COc1ccc(C[C@H]2N(c3ccc([N+](=O)[O-])cc3)C(=O)[C@@H]3CCCN32)cc1OC	inactive
